Measured values from PubChem BioAssay (NCI).
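Exposure lasted 48 hours, with cells grown in 96-well plates and compounds tested at five concentrations. The concentration for full growth arrest is given as TGI.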

Experiments:
Assay in all cases: DTP human tumour cell line panel, 48 h
DU-145 prostate = tested on: DU-145 prostate
RPMI-8226 leukemia = tested on: RPMI-8226 leukemia
SF-295 CNS = tested on: SF-295 CNS
LOX IMVI melanoma = tested on: LOX IMVI melanoma
COLO 205 colon = tested on: COLO 205 colon
HL-60(TB) leukemia = tested on: HL-60(TB) leukemia
MALME-3M melanoma = tested on: MALME-3M melanoma
OVCAR-4 ovarian = tested on: OVCAR-4 ovarian
KM12 colon = tested on: KM12 colon
CAKI-1 renal = tested on: CAKI-1 renal
UO-31 renal = tested on: UO-31 renal
MOLT-4 leukemia = tested on: MOLT-4 leukemia
PC-3 prostate = tested on: PC-3 prostate
A549 NSCLC = tested on: A549 NSCLC
SNB-75 CNS = tested on: SNB-75 CNS
IGROV1 ovarian = tested on: IGROV1 ovarian
SW-620 colon = tested on: SW-620 colon
SK-OV-3 ovarian = tested on: SK-OV-3 ovarian
SK-MEL-5 melanoma = tested on: SK-MEL-5 melanoma
ACHN renal = tested on: ACHN renal
786-0 renal = tested on: 786-0 renal
CCRF-CEM leukemia = tested on: CCRF-CEM leukemia
HS 578T breast = tested on: HS 578T breast
U251 CNS = tested on: U251 CNS
HOP-92 NSCLC = tested on: HOP-92 NSCLC
UACC-62 melanoma = tested on: UACC-62 melanoma
MDA-MB-231 breast = tested on: MDA-MB-231 breast
OVCAR-3 ovarian = tested on: OVCAR-3 ovarian
HCT-15 colon = tested on: HCT-15 colon
SF-268 CNS = tested on: SF-268 CNS
OVCAR-5 ovarian = tested on: OVCAR-5 ovarian
HCT-116 colon = tested on: HCT-116 colon
HCC-2998 colon = tested on: HCC-2998 colon
M14 melanoma = tested on: M14 melanoma
HOP-62 NSCLC = tested on: HOP-62 NSCLC
RXF 393 renal = tested on: RXF 393 renal
NCI-H23 lung = tested on: NCI-H23 lung
SR leukemia = tested on: SR leukemia
OVCAR-8 ovarian = tested on: OVCAR-8 ovarian
EKVX NSCLC = tested on: EKVX NSCLC
NCI-H522 lung = tested on: NCI-H522 lung
TK-10 renal = tested on: TK-10 renal
NCI-H226 lung = tested on: NCI-H226 lung
NCI/ADR-RES ovarian = tested on: NCI/ADR-RES ovarian
SK-MEL-28 melanoma = tested on: SK-MEL-28 melanoma
UACC-257 melanoma = tested on: UACC-257 melanoma
NCI-H460 lung = tested on: NCI-H460 lung
SK-MEL-2 melanoma = tested on: SK-MEL-2 melanoma
BT-549 breast = tested on: BT-549 breast
HT29 colon = tested on: HT29 colon
K-562 leukemia = tested on: K-562 leukemia
T-47D breast = tested on: T-47D breast
A498 renal = tested on: A498 renal
SNB-19 CNS = tested on: SNB-19 CNS
MDA-MB-435 = tested on: MDA-MB-435

Measured: TGI

CON(C(=O)OC(C)(C)C)c1ccccc1
> 100 µM: all assays above

CC(=O)OCC1OC(n2c(=S)n(-c3ccccc3)c(=O)c3ccccc32)C(OC(C)=O)C(OC(C)=O)C1OC(C)=O (stereo not drawn)
> 100 µM: OVCAR-4 ovarian | CAKI-1 renal | HOP-92 NSCLC
